One compound from ChEMBL document CHEMBL3632477 (2015) can be followed below.

In this test the target is Glucagon-like peptide 1 receptor (Homo sapiens, UniProt P43220). Kind of test: Agonist activity at human GLP-1R expressed in CHO-K1 cells assessed as increase in cAMP level incubated for 30 mins. It is filed as functional, cell-based. (cAMP levels reflect the balance of adenylyl cyclase and phosphodiesterase activity.)

Usually EC50 stands for the midpoint of the concentration-response curve.

Sequence of Glucagon-like peptide 1 receptor (P43220 whole entry): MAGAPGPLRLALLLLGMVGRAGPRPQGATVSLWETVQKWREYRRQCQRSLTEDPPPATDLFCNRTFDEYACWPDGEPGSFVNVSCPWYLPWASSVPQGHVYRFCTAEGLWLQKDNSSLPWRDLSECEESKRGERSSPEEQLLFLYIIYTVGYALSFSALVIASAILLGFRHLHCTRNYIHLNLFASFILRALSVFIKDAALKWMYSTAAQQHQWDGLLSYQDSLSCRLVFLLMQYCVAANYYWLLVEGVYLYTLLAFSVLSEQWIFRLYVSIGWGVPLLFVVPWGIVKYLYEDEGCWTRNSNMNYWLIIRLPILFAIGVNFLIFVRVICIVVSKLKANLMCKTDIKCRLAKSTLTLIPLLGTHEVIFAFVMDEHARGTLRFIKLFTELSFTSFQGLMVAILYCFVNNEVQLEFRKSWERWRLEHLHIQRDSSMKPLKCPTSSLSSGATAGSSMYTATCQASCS

On to `CC[C@H](C)[C@@H]1NC(=O)[C@H](CCC(=O)O)NC(=O)[C@@H]2CCCN2C(=O)[C@H](Cc2cnc[nH]2)NC(=O)[C@H](CC(=O)O)NC(=O)[C@H](Cc2ccc(O)cc2)NC(=O)[C@H](CC(N)=O)NC(=O)[C@@H]2CSSC[C@@H]3NC(=O)CNC(=O)CNC(=O)CNC(=O)[C@H](C)NC(=O)[C@H](C)NC(=O)CNC(=O)CNC(=O)[C@H](CSSC[C@H](NC3=O)C(=O)N[C@@H](CO)C(=O)N[C@@H](CC(=O)O)C(=O)N3CCC[C@H]3C(=O)N[C@@H](CCCNC(=N)N)C(=O)N2)NC1=O`, for which the EC50 came to 0.14 nM.
